According to patent publication US20060110790A1, “Expression system for large functional proteins” (priority 2002, published 2006):

Target: T1, individually expressed C half of ABCR (Homo sapiens, UniProt P78363)
T1 construct: The cDNAs coding for the N-half (amino acids 1-1325) and C-half (amino acids 1326-2273) of ABCR; made in house; host or cells: COS-1 cells
T1 sequence (P78363 1326-2273): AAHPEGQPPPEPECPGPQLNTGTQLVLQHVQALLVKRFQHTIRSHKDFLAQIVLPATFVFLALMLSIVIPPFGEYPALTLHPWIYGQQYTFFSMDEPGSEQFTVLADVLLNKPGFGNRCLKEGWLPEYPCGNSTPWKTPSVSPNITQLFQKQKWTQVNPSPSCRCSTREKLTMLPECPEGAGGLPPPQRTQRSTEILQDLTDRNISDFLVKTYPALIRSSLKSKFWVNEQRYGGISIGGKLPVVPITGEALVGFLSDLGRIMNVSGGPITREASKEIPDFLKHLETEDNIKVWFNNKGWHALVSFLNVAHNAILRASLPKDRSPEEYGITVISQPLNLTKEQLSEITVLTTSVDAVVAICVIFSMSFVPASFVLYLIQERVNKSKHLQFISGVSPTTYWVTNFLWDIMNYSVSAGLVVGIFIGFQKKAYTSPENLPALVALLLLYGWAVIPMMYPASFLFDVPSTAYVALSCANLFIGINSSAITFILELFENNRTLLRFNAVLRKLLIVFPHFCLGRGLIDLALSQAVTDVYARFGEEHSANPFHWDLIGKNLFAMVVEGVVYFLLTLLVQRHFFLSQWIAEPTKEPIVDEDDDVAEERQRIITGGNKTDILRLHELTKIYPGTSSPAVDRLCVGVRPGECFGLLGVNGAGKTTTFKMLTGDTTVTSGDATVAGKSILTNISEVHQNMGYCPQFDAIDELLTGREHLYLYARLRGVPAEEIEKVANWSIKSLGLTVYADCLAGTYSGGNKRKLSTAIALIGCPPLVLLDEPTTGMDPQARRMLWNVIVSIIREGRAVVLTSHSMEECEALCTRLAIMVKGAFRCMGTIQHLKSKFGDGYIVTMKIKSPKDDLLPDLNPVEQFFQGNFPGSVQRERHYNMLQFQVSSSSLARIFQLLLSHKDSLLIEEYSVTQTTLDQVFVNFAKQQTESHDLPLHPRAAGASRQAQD
Assay: Retinal-stimulated ATPase activity of purified protein reconstituted in lipid vesicles
Type: biochemical
Conditions: individually expressed in COS-1 cells, 50 μM [α32P]ATP
Description: Membranes (from two 10 cm dishes) were solubilized in 0.5 ml of 1% Triton-X100 in Buffer A (140 mM NaCl, 20 mM Tris-HCl, pH 7.4) for 20 min on ice. For ATPase assays, the membrane preparation step was omitted and the cell suspension was solubilized directly in Buffer B (10 mg/ml soybean phospholipids, 10% glycerol, 1 mM dithiothreitol, 100 mM NaCl, 3 mM MgCl2, 50 mM NaHEPES, pH 7.4) containing 18 mM CHAPS. The supernatant after a 10 min centrifugation at 40,000 rpm (TLA100.4 rotor) was mixed with 50 μl Rim3F4 Sepharose 2B for 1 h at 4° C. The beads were washed 6 times in Buffer A containing 0.2% Triton X-100 or Buffer B containing 10 mM CHAPS and eluted with 4% SDS (for electrophoresis) or 0.2 mg/ml Rim3F4 peptide (for reconstitution and determination of ATPase activity). Purified protein (24 μl) was incubated with 6 μl of 50 mg/ml lipid (1:1 mixture of dioleoylphosphatidylethanolamine and brain polar lipid, by weight) and 3 μl n-octylglucoside for 30 min on ice. The mixture was diluted rapidly with 200 μl of Buffer C (1 mM dithiothreitol, 140 mM NaCl, 25 mM NaHEPES, pH 7.4) and passed through a 200 μl Extracti-gel column (Pierce). The flow-through containing the reconstituted protein was used for determination of ATPase activity.
ATPase activity was measured as described previously (Ahn, J., Wong, J. T., and Molday, R. S. (2000) J Biol Chem 275(27), 20399-405) using 50 μM [α^32P]ATP and thin layer chromatography. The all-trans retinal concentration was determined spectrophotometrically (λ383 nm=42.88 mM^−1 cm^−1). Protein concentration was estimated from the eluate before reconstitution by laser densitometry of Coomassie blue stained gels using bovine serum albumin as a standard. […] Direct protein measurements after reconstitution by densitometry of Western blots was about half of that in the eluate. […]
ATPase Activity of Expressed N and C Halves—The basal and retinal activated ATPase activity of full-length ABCR and the N and C halves individually or co-expressed in COS-1 cells was determined after immunoaffinity purification and reconstitution into lipid vesicles. […]

stimulation of ATPase activity: not stimulated
SMILES: CC1=C(/C=C/C(C)=C/C=C/C(C)=C/C=O)C(C)(C)CCC1 [all-trans retinal]
